Test results: patent publication US20230265151A1, “GIP/GLP1 CO-AGONIST COMPOUNDS” (priority 2020, published 2023)
Where two headings read alike, the source gives them in different places.

Key:
Format in all cases: cell-based
hGIPR = molecular target: T1, hGIPR (Homo sapiens, UniProt P48546); test: Functional cAMP formation (HTRF) in HEK-293 clonal cells expressing hGIPR, 0.1% bovine casein, without or with 1.0% human serum albumin; conditions: for EC50: geometric mean
T1 construct: expressed in transfected cells
T1 sequence (P48546 22-466): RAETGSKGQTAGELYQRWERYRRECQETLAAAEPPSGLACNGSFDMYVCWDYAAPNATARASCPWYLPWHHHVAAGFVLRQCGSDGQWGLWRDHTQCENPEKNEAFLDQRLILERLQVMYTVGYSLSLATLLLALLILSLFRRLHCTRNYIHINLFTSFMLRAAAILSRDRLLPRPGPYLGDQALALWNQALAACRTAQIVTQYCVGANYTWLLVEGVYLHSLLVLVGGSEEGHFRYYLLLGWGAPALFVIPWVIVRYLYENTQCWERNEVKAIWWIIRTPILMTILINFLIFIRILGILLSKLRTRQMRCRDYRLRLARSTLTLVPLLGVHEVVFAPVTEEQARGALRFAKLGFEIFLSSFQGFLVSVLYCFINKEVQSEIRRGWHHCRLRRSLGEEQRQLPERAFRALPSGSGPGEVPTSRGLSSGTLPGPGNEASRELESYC
Summary of the method: (§1)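 Cells were stimulated with peptide for 30 min at 37° C, then lysed in buffer carrying cAMP-d2 and anti-cAMP Eu3+-cryptate for a competitive HTRF read after at least 60 min at room temperature. The 665/620 nm ratio was converted to nM cAMP against a standard curve.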

hGCGR = molecular target: T2, hGCGR (Homo sapiens, UniProt P47871); test: Functional cAMP formation (HTRF) in HEK-293 clonal cells expressing hGCGR, 0.1% bovine casein, without or with 1.0% human serum albumin
T2 construct: expressed in transfected cells
Summary of the method: as §1

hGLP-1R = hGLP-1R (Homo sapiens, UniProt P43220); test: Functional cAMP formation (HTRF) in HEK-293 clonal cells expressing hGLP-1R, 0.1% bovine casein, without or with 1.0% human serum albumin; set-up: expressed in transfected cells; conditions: for EC50: geometric mean
Summary of the method: as §1

[1] = 0.1% bovine casein and 1.0% human serum albumin, 37° C., read-out: hGIPR EC50, nM (SEM, n)
[2] = HEK293, 0.1% bovine casein and 1.0% human serum albumin, 37° C., percent of maximal response to GIP(1-42)NH2, read-out: hGIPR Emax, % ± SEM
[3] = 0.1% bovine casein and 1.0% human serum albumin, 37° C., geometric mean, read-out: hGCGR EC50, nM (SEM, n)
[4] = cAMP, incubated at 37° C., 0.1% bovine casein (no human serum albumin), geometric mean, read-out: hGCGR EC50, nM (SEM, n)

Sequence of hGLP-1R (P43220 24-463): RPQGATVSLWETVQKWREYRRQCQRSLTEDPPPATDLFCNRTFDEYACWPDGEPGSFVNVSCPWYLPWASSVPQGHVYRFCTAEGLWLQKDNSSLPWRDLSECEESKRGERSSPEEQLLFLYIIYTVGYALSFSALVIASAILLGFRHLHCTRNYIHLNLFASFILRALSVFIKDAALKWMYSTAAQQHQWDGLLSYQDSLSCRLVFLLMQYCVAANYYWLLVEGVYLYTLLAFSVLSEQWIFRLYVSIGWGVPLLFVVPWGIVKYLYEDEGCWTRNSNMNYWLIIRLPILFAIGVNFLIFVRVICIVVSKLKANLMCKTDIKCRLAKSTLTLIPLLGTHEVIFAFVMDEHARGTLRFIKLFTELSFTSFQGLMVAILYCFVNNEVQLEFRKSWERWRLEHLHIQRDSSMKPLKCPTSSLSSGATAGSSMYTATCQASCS
T2 sequence (P47871 26-477): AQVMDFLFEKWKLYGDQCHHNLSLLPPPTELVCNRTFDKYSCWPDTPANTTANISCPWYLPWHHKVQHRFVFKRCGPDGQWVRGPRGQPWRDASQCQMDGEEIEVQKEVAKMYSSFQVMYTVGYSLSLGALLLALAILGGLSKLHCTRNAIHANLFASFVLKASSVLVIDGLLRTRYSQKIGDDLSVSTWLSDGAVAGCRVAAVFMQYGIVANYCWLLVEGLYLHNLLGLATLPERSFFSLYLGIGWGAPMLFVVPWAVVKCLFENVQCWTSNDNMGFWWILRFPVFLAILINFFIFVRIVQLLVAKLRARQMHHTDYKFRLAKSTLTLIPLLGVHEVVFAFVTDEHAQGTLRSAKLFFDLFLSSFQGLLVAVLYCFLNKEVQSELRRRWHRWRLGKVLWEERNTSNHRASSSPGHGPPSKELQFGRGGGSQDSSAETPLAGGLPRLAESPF

SMILES: CC[C@H](C)[C@H](NC(=O)[C@H](CC(C)C)NC(=O)[C@](C)(Cc1ccc(O)cc1)NC(=O)[C@@H](CCC(=O)O)NC(=O)[C@@H](NC(=O)[C@H](Cc1ccccc1)NC(=O)[C@H](CCC(=O)O)NC(=O)C(C)(C)NC(=O)[C@H](CCC(N)=O)NC(=O)[C@H](C)NC(=O)[C@H](CCCCNC(=O)COCCOCCNC(=O)COCCOCCNC(=O)CC[C@H](NC(=O)CCCCCCCCCCCCC(=O)O)C(=O)O)NC(=O)[C@H](CCCN)NC(=O)[C@H](CC(=O)O)NC(=O)[C@H](CC(C)C)NC(=O)[C@](C)(CC(C)C)NC(=O)[C@@H](NC(=O)C(C)(C)NC(=O)[C@@H](NC(=O)[C@H](CC(=O)O)NC(=O)[C@H](CO)NC(=O)[C@@H](NC(=O)[C@](C)(Cc1ccccc1F)NC(=O)[C@@H](NC(=O)CNC(=O)[C@H](CCC(=O)O)NC(=O)C(C)(C)NC(=O)[C@@H](N)Cc1ccc(O)cc1)[C@@H](C)O)[C@@H](C)O)C(C)C)[C@@H](C)CC)[C@@H](C)CC)C(=O)N[C@@H](CCCCNC(=O)COCCOCCNC(=O)COCCOCCNC(=O)CC[C@H](NC(=O)CCCCCCCCCCCCC(=O)O)C(=O)O)C(=O)NCC(=O)NCC(=O)N1CCC[C@H]1C(=O)N[C@@H](CO)C(=O)N[C@@H](CO)C(=O)NCC(=O)N[C@@H](C)C(=O)N1CCC[C@H]1C(=O)N1CCC[C@H]1C(=O)N1CCC[C@H]1C(=O)N[C@@H](CO)C(N)=O [Example 325]
- Emax (hGIPR; HEK293, cAMP, 37° C., 0.1% bovine casein and 1.0% human serum albumin, percent of maximal response to GIP(1-42)NH2, read-out: hGIPR Emax, % ± SEM): 94.7%
- EC50 (hGIPR; cAMP, 37° C., 0.1% bovine casein (no human serum albumin), read-out: hGIPR EC50, nM (SEM, n)): 0.0485 nM
- EC50 (hGCGR; cAMP, 37° C., 0.1% bovine casein (no human serum albumin), geometric mean, read-out: hGCGR EC50, nM (SEM, n)): > 9950 nM
- EC50 (hGCGR; cAMP, 37° C., 0.1% bovine casein and 1.0% human serum albumin, geometric mean (SEM, n), read-out: hGCGR EC50, nM (SEM, n)): > 9950 nM
- Emax (hGLP-1R; HEK293, cAMP, 37° C., 0.1% bovine casein, percent of maximal response to GLP-1(7-36)NH2, arithmetic mean, read-out: hGLP-1R Emax, % ± SEM): 97.8%
- EC50 (hGLP-1R; cAMP, 37° C., 0.1% bovine casein (no human serum albumin), read-out: hGLP-1R EC50, nM (SEM, n)): 0.225 nM

SMILES: CC[C@H](C)[C@H](NC(=O)[C@H](CC(C)C)NC(=O)[C@H](CCCCNC(=O)COCCOCCNC(=O)COCCOCCNC(=O)CC[C@H](NC(=O)CCCc1ccc(C(C)(C)C)cc1)C(=O)O)NC(=O)[C@H](CCC(=O)O)NC(=O)[C@@H](NC(=O)[C@H](Cc1ccccc1)NC(=O)[C@H](CCC(=O)O)NC(=O)C(C)(C)NC(=O)[C@H](CCC(N)=O)NC(=O)[C@H](C)NC(=O)[C@H](CCCCNC(=O)COCCOCCNC(=O)COCCOCCNC(=O)CC[C@H](NC(=O)CCCc1ccc(C(C)(C)C)cc1)C(=O)O)NC(=O)[C@H](CCCN)NC(=O)[C@H](CC(=O)O)NC(=O)[C@H](CC(C)C)NC(=O)[C@](C)(CC(C)C)NC(=O)[C@@H](NC(=O)[C@H](CO)NC(=O)[C@H](Cc1ccncc1)NC(=O)[C@H](CC(=O)O)NC(=O)[C@H](CO)NC(=O)[C@@H](NC(=O)[C@](C)(Cc1ccccc1F)NC(=O)[C@@H](NC(=O)CNC(=O)[C@H](CCC(=O)O)NC(=O)C(C)(C)NC(=O)[C@@H](N)Cc1ccc(O)cc1)[C@@H](C)O)[C@@H](C)O)[C@@H](C)CC)[C@@H](C)CC)C(=O)N[C@@H](CCC(=O)O)C(=O)NCC(=O)NCC(=O)N1CCC[C@H]1C(=O)N[C@@H](CO)C(=O)N[C@@H](CO)C(=O)NCC(=O)N[C@@H](C)C(=O)N1CCC[C@H]1C(=O)N1CCC[C@H]1C(=O)N1CCC[C@H]1C(=O)N[C@@H](CO)C(N)=O [Example 68]
- EC50 (hGIPR; [1]): 0.0831 nM
- Emax (hGIPR; [2]): 92.4%
- EC50 (hGIPR; cAMP, incubated at 37° C., 0.1% bovine casein (no human serum albumin), read-out: hGIPR EC50, nM (SEM, n)): 0.0105 nM
- EC50 (hGCGR; [3]): > 9950 nM
- EC50 (hGCGR; [4]): > 9950 nM
- EC50 (hGLP-1R; 0.1% bovine casein and 1.0% human serum albumin, 37° C., read-out: hGLP-1R EC50, nM (SEM, n)): 5.79 nM
- Emax (hGLP-1R; HEK293, percent of maximal response to GLP-1(7-36)NH2, 37° C., 0.1% bovine casein, arithmetic mean, read-out: hGLP-1R Emax, % ± SEM): 95.9%

SMILES: CC[C@H](C)[C@H](NC(=O)[C@H](CC(C)C)NC(=O)[C@](C)(Cc1ccc(O)cc1)NC(=O)[C@@H](CCC(=O)O)NC(=O)[C@@H](NC(=O)[C@H](Cc1ccccc1)NC(=O)[C@H](CCC(=O)O)NC(=O)C(C)(C)NC(=O)[C@H](CCC(N)=O)NC(=O)[C@H](C)NC(=O)[C@H](CCCCNC(=O)COCCOCCNC(=O)COCCOCCNC(=O)CC[C@H](NC(=O)CCCCCCCCCCCCC(=O)O)C(=O)O)NC(=O)[C@H](CCCN)NC(=O)[C@H](CC(=O)O)NC(=O)[C@H](CC(C)C)NC(=O)[C@](C)(CC(C)C)NC(=O)[C@@H](NC(=O)[C@H](CO)NC(=O)[C@](C)(Cc1ccccc1F)NC(=O)[C@H](CC(=O)O)NC(=O)[C@H](CO)NC(=O)[C@@H](NC(=O)[C@](C)(Cc1ccccc1F)NC(=O)[C@@H](NC(=O)CNC(=O)[C@H](CCC(=O)O)NC(=O)C(C)(C)NC(=O)[C@@H](N)Cc1ccc(O)cc1)[C@@H](C)O)[C@@H](C)O)[C@@H](C)CC)[C@@H](C)CC)C(=O)N[C@@H](CCC(=O)O)C(=O)NCC(=O)NCC(=O)N[C@@H](CCCCNC(=O)COCCOCCNC(=O)COCCOCCNC(=O)CC[C@H](NC(=O)CCCCCCCCCCCCC(=O)O)C(=O)O)C(=O)N[C@@H](CO)C(=O)N[C@@H](CO)C(=O)NCC(=O)N[C@@H](C)C(=O)N1CCC[C@H]1C(=O)N1CCC[C@H]1C(=O)N1CCC[C@H]1C(=O)N[C@@H](CO)C(N)=O [Example 87]
- EC50 (hGIPR; [1]): 4.84 nM
- Emax (hGIPR; [2]): 89.2%
- Emax (hGIPR; HEK293, percent of maximal response to GIP(1-42)NH2, 37° C., 0.1% bovine casein, arithmetic mean, read-out: hGIPR Emax, % ± SEM): 84.7%
- EC50 (hGCGR; [3]): > 9950 nM
- EC50 (hGCGR; [4]): > 9950 nM
- EC50 (hGLP-1R; cAMP, incubated at 37° C., 0.1% bovine casein (no human serum albumin), read-out: hGLP-1R EC50, nM (SEM, n)): 1.34 nM

SMILES: CC[C@H](C)[C@H](NC(=O)[C@H](CCCN)NC(=O)[C@H](CC(=O)O)NC(=O)[C@H](CC(C)C)NC(=O)[C@](C)(CC(C)C)NC(=O)[C@@H](NC(=O)C(C)(C)NC(=O)[C@@H](NC(=O)[C@H](CC(=O)O)NC(=O)[C@H](CO)NC(=O)[C@@H](NC(=O)[C@](C)(Cc1ccccc1F)NC(=O)[C@@H](NC(=O)CNC(=O)[C@H](CCC(=O)O)NC(=O)C(C)(C)NC(=O)[C@@H](N)Cc1ccc(O)cc1)[C@@H](C)O)[C@@H](C)O)C(C)C)[C@@H](C)CC)C(=O)N[C@@H](C)C(=O)N[C@@H](CCC(N)=O)C(=O)NC(C)(C)C(=O)N[C@@H](CCCCNC(=O)COCCOCCNC(=O)CC[C@H](NC(=O)CCCCCCCCCOc1ccc(C(=O)O)cc1)C(=O)O)C(=O)N[C@@H](Cc1ccccc1)C(=O)N[C@H](C(=O)N[C@H](CCC(=O)O)C(=O)N[C@@](C)(Cc1ccc(O)cc1)C(=O)N[C@@H](CC(C)C)C(=O)N[C@H](C(=O)N[C@@H](CCCCNC(=O)COCCOCCNC(=O)CC[C@H](NC(=O)CCCCCCCCCOc1ccc(C(=O)O)cc1)C(=O)O)C(=O)NCC(=O)NCC(=O)N1CCC[C@H]1C(=O)N[C@@H](CO)C(=O)N[C@@H](CO)C(=O)NCC(=O)N[C@@H](C)C(=O)N1CCC[C@H]1C(=O)N1CCC[C@H]1C(=O)N1CCC[C@H]1C(=O)N[C@@H](CO)C(N)=O)[C@@H](C)CC)[C@@H](C)CC [Example 382]
- Emax (hGIPR; HEK293, read-out: hGIPR Emax, % ± SEM, cAMP, 37° C., 0.1% bovine casein and 1.0% human serum albumin, percent of maximal response to GIP(1-42)NH2): 87.2%
- Emax (hGIPR; HEK293, read-out: hGIPR Emax, % ± SEM, cAMP, 37° C., 0.1% bovine casein, percent of maximal response to GIP(1-42)NH2, arithmetic mean): 97.6%
- EC50 (hGIPR; hGIPR EC50, nM (SEM, n), cAMP, 37° C., 0.1% bovine casein (no human serum albumin)): 0.0302 nM
- EC50 (hGCGR; hGCGR EC50, nM (SEM, n), cAMP, 37° C., 0.1% bovine casein (no human serum albumin), geometric mean): > 9950 nM
- EC50 (hGCGR; hGCGR EC50, nM (SEM, n), cAMP, 37° C., 0.1% bovine casein and 1.0% human serum albumin, geometric mean (SEM, n)): > 9950 nM
- Emax (hGLP-1R; HEK293, read-out: hGLP-1R Emax, % ± SEM, cAMP, 37° C., 0.1% bovine casein and 1.0% human serum albumin, percent of maximal response to GLP-1(7-36)NH2): 118%
- EC50 (hGLP-1R; hGLP-1R EC50, nM (SEM, n), cAMP, 37° C., 0.1% bovine casein (no human serum albumin)): 0.619 nM
